Measured values as given in US20240317727A1 (Duke University, priority 2018, published 2024).
Like-named read-outs stand apart in the source and are kept apart here.

Assays:
[1] = target: T1, purified recombinant human HSF1 (HSF1 DNA binding domain) (Homo sapiens, UniProt Q00613); test: Melting temperature of HSF1 DBD with HSF1 degrader compounds (Sypro orange); conditions: read-out: ΔTm (° C.)
T1 sequence (Q00613 15-120): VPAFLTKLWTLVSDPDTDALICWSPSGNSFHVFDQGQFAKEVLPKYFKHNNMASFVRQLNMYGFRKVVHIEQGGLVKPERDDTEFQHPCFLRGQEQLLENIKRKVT
Description: The melting temperature (ΔTm) for purified recombinant human HSF1 (HSF1 DNA binding domain) was determined in the presence of HSF1 degrader compounds shown in Table 5 and compared to the solvent DMSO. Sypro orange dye was added to the HSF1 DBD (5 micromolar final concentration) in buffer, mixed and distributed to wells in 384 well microtiter plates. HSF1 degrader compound (12.5 micromolar) or DMSO solvent was added to three replicate wells per compound concentration, mixed and plates loaded into a Quant Studio thermnocycler and run on a temperature gradient from 25° C. to 85° C. with increments of 0.5° C. steps. Melting curves were obtained and analyzed using the ThermnoFisher Shift Software 1.4 fitted with a Boltzmann equation to determine the change in melting temperature of the protein in the presence of DMSO as compared to compound. The difference in the melting temperature under these two conditions was assigned as the change in melting temperature of ΔTm.

[2] = test system: C4-2 prostate cancer cells; test: C4-2 cell proliferation, Cell Titre Glo; type: cell-based; conditions: Homo sapiens, 48-hour period, 9-point dilution series, read-out: Cell Viability IC50
Description: Next, cell viability of C4-2 prostate cancer cells was determined. C4-2 prostate cancer cells were grown in RMPI-1640 (no L-glutamine, Gibco 21870076) supplemented with 10% fetal bovine […] (non-heat-inactivated, Cytiva Hyclone SH30071.03). […] A 9-point dilution series was used to assess the ability of each compound to inhibit the growth of C4-2 prostate cancer cells over a 48-hour period, as compared to negative control solvent, DMSO. Cell proliferation was measured by the Cell Titre Glo assay using 384 well microtiter plate reader to quantitate luminescence. The IC50 was determined from the values obtained.

[3] = test system: DNAJB1 equals Hsp40; test: HSF1 target gene transcript expression qPCR in C4-2 cells, Hsp40; type: cell-based; conditions: Homo sapiens, 2 hours then SNX-2112 (100 nM) 5 hr, vs GAPDH and DMSO
Description: (§1) Next, the change in heat shock protein gene expression in C4-2 prostate cancer cells was determined. C4-2 prostate cancer cells were grown in RMPI-1640 (no L-glutamine, Gibco 21870076) supplemented with 10% fetal bovine […] (non-heat-inactivated, Cytiva Hyclone SH30071.03). To quantitatively measure the inhibition of HSF1 activity in C4-2 prostate cancer cells, compounds or DMSO were added to triplicate C4-2 cell cultures for 2 hours. HSF1 activity was then stimulated with the Hsp90 inhibitor SNX-2112 (100 nM) for an additional 5 hr at 37° C. in the presence of HSF1 degrader compounds or DMSO. Total RNA was extracted, converted to cDNA and used in qPCR assays to quantify the change in HSF1 target gene transcript expression (HSPA4L equals Hsp70, HSPB1 equals Hsp27 and DNAJB1 equals Hsp40) as compared to GAPDH internal control gene, and then compared to DMSO negative control.

[4] = test system: Hsp70; test: HSF1 target gene transcript expression qPCR in C4-2 cells, Hsp70; type: cell-based; conditions: Homo sapiens, 2 hours then SNX-2112 (100 nM) 5 hr, vs GAPDH and DMSO
Description: as §1

[5] = Rat liver microsome stability; type: in vitro ADME; conditions: rat liver microsomes, 37° C., read-out: Microsome Stability T1/2
Description: Next, the microsome stability in rats was determined for select compounds from Table 5. Test compounds are incubated with rat liver microsomes supplemented with co-factors at 37° C. Typical conditions were a compound concentration of 1 μM and 5 sampling time-points (0, 5, 15, 30 and 45 minutes), in duplicate. At each time-point, the reactions were terminated by the addition of organic solvent. The samples were centrifuged and the parent compound concentration was evaluated by LC-MS/MS measurements. Control compounds were included with well-established stability when incubated with rat microsomes. Multiple time points were used to determine % parent compound remaining at each time point and to calculate the Tiu2 for each compound in rat liver microsomes. A higher T1/2 indicates increased compound stability in microsomes.

[6] = target: T2, recombinant HSF1 DNA-binding domain (DBD) (Homo sapiens, UniProt Q00613); test: Differential Scanning Fluorimetry (DSF), HSF1 DBD melting temperature; conditions: Table 3; 5 μM HSF1 DBD, 25PM Compound; positive = stabilizes, negative = destabilizes HSF1
T2 sequence (Q00613 15-120): T1 sequence (Q00613 15-120)

[7] = 12.5 micromolar compound, 5 micromolar HSF1 DBD, compared to DMSO

| SMILES | ΔTm at 12.5 µM [1, 7] | IC50 [2] | mrna remaining at 10 µM [3] | mrna remaining at 10 µM [4] | half-life at 1 μM [5] | ΔTm at 25 µM [6] | ΔTm at 12.5 µM [1] |
| --- | --- | --- | --- | --- | --- | --- | --- |
| O=C(Nc1ccc(F)cc1)Nc1ccc(Cl)c([N+](=O)[O-])c1 [Compound 17, 1-(4-chloro-3-nitrophenyl)-3-(4-fluorophenyl)urea] | 3.69 °C | 5.61 µM | 23.6% | 30.4% | 1.54 h | – | – |
| O=C(Nc1ccc(F)cc1)Nc1ccc(Cl)c(S(=O)(=O)C(F)(F)F)c1 [Compound 54, 1-[4-chloro-3-(trifluoromethylsulfonyl)phenyl]-3-(4-fluorophenyl)urea] | 2.1 °C | 3.18 µM | 37% | 23% | – | – | – |
| N#Cc1ccc(NC(=O)Nc2ccc(Cl)c(C(F)(F)F)c2)cc1 [Compound 242, 1-(4-chloro-3-(trifluoromethyl)phenyl)-3-(4-cyanophenyl)urea] | 2.62 °C | 1.98 µM | 71% | 55% | 14.9 h | – | – |
| N#Cc1ccc(NC(=O)Nc2ccc3c(c2)S(=O)(=O)C=C3)cc1 [Compound 244, 1-(4-cyanophenyl)-3-(1,1-dioxidobenzo[b]thiophen-6-yl)urea] | 2.11 °C | 2.19 µM | – | – | 2.58 h | – | – |
| N#Cc1ccc(NC(=O)Nc2ccc3nsnc3c2)cc1 [Compound 245, 1-(benzo[c][1,2,5]thiadiazol-5-yl)-3-(4-cyanophenyl)urea] | 2.74 °C | > 10 µM | 39% | 36% | – | – | – |
| COc1cc(NC(=O)Nc2ccc(Cl)c(C(F)(F)F)c2)ccc1C#N [Compound 247, 1-(4-chloro-3-(trifluoromethyl)phenyl)-3-(4-cyano-3-methoxyphenyl)urea] | 2.8 °C | 2.4 µM | 73% | 63% | – | – | – |
| N#Cc1ccc(NC(=O)Nc2ccc3c(c2)S(=O)(=O)C=C3)cc1C(F)(F)F [Compound 256, 1-(4-cyano-3-(trifluoromethyl)phenyl)-3-(1,1-dioxidobenzo[b]thiophen-6-yl)urea] | 1.9 °C | 3.47 µM | – | – | 1.23 h | – | – |
| N#Cc1ccc(NC(=O)Nc2ccc3c(c2)S(=O)(=O)C=C3)cn1 [Compound 265, 1-(6-cyanopyridin-3-yl)-3-(1,1-dioxidobenzo[b]thiophen-6-yl)urea] | 0.84 °C | 9.69 µM | 77% | 88% | – | – | – |
| N#Cc1ccc(NC(=O)Nc2ccc3c(c2)S(=O)(=O)C=C3)nc1 [Compound 266, 1-(5-cyanopyridin-2-yl)-3-(1,1-dioxidobenzo[b]thiophen-6-yl)urea] | -0.64 °C | 0.81 µM | 93% | 83% | – | – | – |
| N#Cc1ccc(NC(=O)Nc2ccc(Cl)c(S(=O)(=O)C(F)(F)F)c2)cc1CN1CCOCC1 [Compound 285, 1-(4-chloro-3-((trifluoromethyl)sulfonyl)phenyl)-3-(4-cyano-3-(morpholinomethyl)phenyl)urea] | – | 4.81 µM | – | – | – | -7.52 °C | 1.23 °C |
| N#Cc1ccc(NC(=O)Nc2ccc(Cl)c(S(=O)(=O)C(F)(F)F)c2)cc1CCN1CCOCC1 [Compound 286, 1-(4-chloro-3-((trifluoromethyl)sulfonyl)phenyl)-3-(4-cyano-3-(2-morpholinoethyl)phenyl)urea] | – | 5.95 µM | – | – | – | -6.23 °C | 1.64 °C |
| N#Cc1ccc(NC(=O)Nc2ccc(CN3CCOCC3)c(S(=O)(=O)C(F)(F)F)c2)cc1 [Compound 288, 1-(4-cyanophenyl)-3-(4-(morpholinomethyl)-3-((trifluoromethyl)sulfonyl)phenyl)urea] | – | 8.9 µM | – | – | – | 3.27 °C | 2.24 °C |
| N#Cc1ccc(NC(=O)Nc2ccc(CCN3CCOCC3)c(S(=O)(=O)C(F)(F)F)c2)cc1 [Compound 289, 1-(4-cyanophenyl)-3-(4-(2-morpholinoethyl)-3-((trifluoromethyl)-sulfonyl)phenyl)urea] | 2.6 °C | 8.91 µM | – | – | – | 3.2 °C | – |
| CN(C)CCc1cc(NC(=O)Nc2ccc3c(c2)S(=O)(=O)C=C3)ccc1C#N [Compound 290, 1-(4-cyano-3-(2-(dimethylamino)ethyl)phenyl)-3-(1,1-dioxidobenzo[b]thiophen-6-yl)urea] | – | > 10 µM | – | – | – | 3.28 °C | -0.3 °C |
| N#Cc1ccc(NC(=O)Nc2ccc3c(c2)S(=O)(=O)C=C3)cc1CN1CCOCC1 [Compound 291, 1-(4-cyano-3-(morpholinomethyl)phenyl)-3-(1,1-dioxidobenzo[b]thiophen-6-yl)urea] | – | > 10 µM | – | – | – | -4.4 °C | -0.44 °C |
| N#Cc1ccc(NC(=O)Nc2ccc3c(c2)S(=O)(=O)C=C3)cc1CCN1CCOCC1 [Compound 292, 1-(4-cyano-3-(2-morpholinoethyl)phenyl)-3-(1,1-dioxidobenzo[b]thiophen-6-yl)urea] | – | > 10 µM | – | – | – | 3.33 °C | -0.76 °C |
| N#Cc1ccc(NC(=O)Nc2ccc(Cl)c(S(=O)(=O)C(F)(F)F)c2)cc1OCCN1CCOCC1 [Compound 293, 1-(4-chloro-3-((trifluoromethyl)sulfonyl)phenyl)-3-(4-cyano-3-(2-morpholinoethoxy)phenyl)urea] | – | 6.05 µM | – | – | – | -4.19 °C | 1.13 °C |
| N#Cc1ccc(NC(=O)Nc2ccc(OCCN3CCOCC3)c(S(=O)(=O)C(F)(F)F)c2)cc1 [Compound 294, 1-(4-cyanophenyl)-3-(4-(2-morpholinoethoxy)-3-((trifluoromethyl)sulfonyl)phenyl)urea] | – | 9.82 µM | – | – | – | -9.02 °C | 2.24 °C |
| CN(C)CCc1cc(C#N)ccc1NC(=O)Nc1ccc(Cl)c(S(=O)(=O)C(F)(F)F)c1 [Compound 296, 1-(4-chloro-3-((trifluoromethyl)sulfonyl)phenyl)-3-(4-cyano-2-(2-(dimethylamino)ethyl)phenyl)urea] | – | > 10 µM | – | – | – | -5.21 °C | 0.43 °C |
| N#Cc1ccc(NC(=O)Nc2ccc(Cl)c(S(=O)(=O)C(F)(F)F)c2)c(CN2CCOCC2)c1 [Compound 297, 1-(4-chloro-3-((trifluoromethyl)sulfonyl)phenyl)-3-(4-cyano-2-(morpholinomethyl)phenyl)urea] | 1.1 °C | > 10 µM | – | – | – | 2.08 °C | – |
| N#Cc1ccc(NC(=O)Nc2ccc(Cl)c(S(=O)(=O)C(F)(F)F)c2)c(CCN2CCOCC2)c1 [Compound 298, 1-(4-chloro-3-((trifluoromethyl)sulfonyl)phenyl)-3-(4-cyano-2-(2-morpholinoethyl)phenyl)urea] | 1 °C | > 10 µM | – | – | – | 2.28 °C | – |
| N#Cc1ccc(NC(=O)Nc2ccc(Cl)c(S(=O)(=O)C(F)(F)F)c2)c(OCCN2CCOCC2)c1 [Compound 299, 1-(4-chloro-3-((trifluoromethyl)sulfonyl)phenyl)-3-(4-cyano-2-(2-morpholinoethoxy)phenyl)urea] | 0.2 °C | > 10 µM | – | – | – | 0.49 °C | – |
